ChEMBL document CHEMBL4354815, “Fibrinolysis Inhibitors: Potential Drugs for the Treatment and Prevention of Bleeding” (J Med Chem, 2020)
Blank lines part the entries; values can stand above or below the molecule they belong to. Where a SMILES comes first, the peptide text is derived from it. [ ]: non-standard residue; d: D form. Met(O2) = CS(=O)(=O)CC[C@H](N)C(=O)O

Tests used:
[1] = target: T1, Plasminogen (Homo sapiens, UniProt P00747); experiment: Inhibition of plasmin (unknown origin) assessed as reduction in amidolytic activity using S-2251 as the substrate after 4 mins
[2] = target: T1, Plasminogen; experiment: Inhibition of human plasmin assessed as reduction in fibrinolysis
[3] = tested on: Blood; experiment: Anti-fibrinolytic activity in human whole blood assessed as reduction in clot lysis incubated for 5 mins in presence of tissue-type plasminogen activator by rotational thromboelastometry; type: functional, tissue-based
[4] = target: T2, Urokinase-type plasminogen activator (Homo sapiens, UniProt P00749); experiment: Inhibition of human urokinase-type plasminogen activator using S-2444 as substrate
[5] = target: T1, Plasminogen; experiment: Inhibition of human plasmin using S-2251 as substrate after 30 mins by spectrophotometric method
[6] = Half life in dog, iv; type: ADME, Canis lupus familiaris; settings: in vivo
[7] = Plasma concentration in human at 0.219 mg/kg/h by liquid chromatography-tandem mass spectrometry; type: ADME, organism-based; settings: in vivo
[8] = Half life in rat, iv; type: ADME; settings: in vivo
[9] = target: Vitamin K-dependent protein C (Homo sapiens, UniProt P04070); experiment: Inhibition of human activated protein […] C using H-D-Lys(Cbo)-Pro-Arg-pNA as substrate
Chain of Vitamin K-dependent protein C (P04070 43-197 limits assumed): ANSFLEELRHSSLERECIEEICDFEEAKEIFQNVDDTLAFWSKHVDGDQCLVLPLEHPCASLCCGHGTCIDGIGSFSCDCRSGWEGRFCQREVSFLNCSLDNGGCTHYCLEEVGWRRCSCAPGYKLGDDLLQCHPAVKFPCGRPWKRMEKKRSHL
Chain of Vitamin K-dependent protein C (P04070 212-461 limits assumed): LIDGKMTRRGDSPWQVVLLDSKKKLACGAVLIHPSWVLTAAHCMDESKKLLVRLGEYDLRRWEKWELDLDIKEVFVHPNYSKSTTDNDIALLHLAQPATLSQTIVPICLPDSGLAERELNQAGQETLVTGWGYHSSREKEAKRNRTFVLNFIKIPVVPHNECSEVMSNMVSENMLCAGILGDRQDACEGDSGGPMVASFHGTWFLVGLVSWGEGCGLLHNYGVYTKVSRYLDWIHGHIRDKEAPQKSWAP

[10] = target: T3, Tissue-type plasminogen activator (Homo sapiens, UniProt P00750); experiment: Inhibition of human tissue-type plasminogen activator using Mes-d-Cha- Gly-Arg-pNA as substrate
T3 sequence (P00750 whole entry): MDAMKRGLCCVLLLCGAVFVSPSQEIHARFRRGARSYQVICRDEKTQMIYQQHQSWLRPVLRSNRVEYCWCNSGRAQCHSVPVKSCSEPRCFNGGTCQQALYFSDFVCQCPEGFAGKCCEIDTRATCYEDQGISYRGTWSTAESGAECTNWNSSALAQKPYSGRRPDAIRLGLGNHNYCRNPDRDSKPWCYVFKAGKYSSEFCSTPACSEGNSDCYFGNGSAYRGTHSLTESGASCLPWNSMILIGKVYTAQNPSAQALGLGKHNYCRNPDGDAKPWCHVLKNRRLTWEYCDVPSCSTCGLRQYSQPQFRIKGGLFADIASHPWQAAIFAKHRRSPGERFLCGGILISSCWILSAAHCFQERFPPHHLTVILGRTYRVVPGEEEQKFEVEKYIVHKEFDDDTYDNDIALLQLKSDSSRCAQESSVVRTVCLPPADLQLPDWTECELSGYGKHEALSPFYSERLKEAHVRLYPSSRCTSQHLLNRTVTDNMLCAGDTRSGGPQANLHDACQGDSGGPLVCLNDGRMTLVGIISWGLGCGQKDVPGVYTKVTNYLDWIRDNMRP

[11] = target: T4, Coagulation factor XII (Homo sapiens, UniProt P00748); experiment: Inhibition of human factor 12a using CHA-Gly-Arg- pNA as substrate
T4 sequence (P00748 whole entry): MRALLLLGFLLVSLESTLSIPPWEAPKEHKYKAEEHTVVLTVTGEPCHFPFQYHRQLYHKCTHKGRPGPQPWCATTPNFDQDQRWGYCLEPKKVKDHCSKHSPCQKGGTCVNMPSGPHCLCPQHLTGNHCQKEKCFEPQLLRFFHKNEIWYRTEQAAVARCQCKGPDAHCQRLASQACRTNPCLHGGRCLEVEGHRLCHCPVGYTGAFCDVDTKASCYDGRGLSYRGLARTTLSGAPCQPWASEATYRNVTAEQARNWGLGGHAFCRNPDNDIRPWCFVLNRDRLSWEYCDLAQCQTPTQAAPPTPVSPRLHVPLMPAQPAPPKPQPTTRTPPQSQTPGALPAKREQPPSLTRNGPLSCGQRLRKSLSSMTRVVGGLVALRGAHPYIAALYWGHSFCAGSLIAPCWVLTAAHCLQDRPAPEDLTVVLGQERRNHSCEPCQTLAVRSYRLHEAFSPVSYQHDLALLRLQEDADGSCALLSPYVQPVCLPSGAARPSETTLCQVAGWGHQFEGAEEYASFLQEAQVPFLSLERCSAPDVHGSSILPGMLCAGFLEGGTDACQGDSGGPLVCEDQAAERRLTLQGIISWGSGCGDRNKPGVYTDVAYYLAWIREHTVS

[12] = target: T5, Prothrombin (Homo sapiens, UniProt P00734); experiment: Inhibition of human factor 2a using Mes-d-Cha-Gly-Arg-pNA as substrate
[13] = target: T6, Complement C1r subcomponent (Homo sapiens, UniProt P00736); experiment: Inhibition of human Complement C1r subcomponent using Val-Ser-Arg-pNA as substrate
T6 sequence (P00736 whole entry): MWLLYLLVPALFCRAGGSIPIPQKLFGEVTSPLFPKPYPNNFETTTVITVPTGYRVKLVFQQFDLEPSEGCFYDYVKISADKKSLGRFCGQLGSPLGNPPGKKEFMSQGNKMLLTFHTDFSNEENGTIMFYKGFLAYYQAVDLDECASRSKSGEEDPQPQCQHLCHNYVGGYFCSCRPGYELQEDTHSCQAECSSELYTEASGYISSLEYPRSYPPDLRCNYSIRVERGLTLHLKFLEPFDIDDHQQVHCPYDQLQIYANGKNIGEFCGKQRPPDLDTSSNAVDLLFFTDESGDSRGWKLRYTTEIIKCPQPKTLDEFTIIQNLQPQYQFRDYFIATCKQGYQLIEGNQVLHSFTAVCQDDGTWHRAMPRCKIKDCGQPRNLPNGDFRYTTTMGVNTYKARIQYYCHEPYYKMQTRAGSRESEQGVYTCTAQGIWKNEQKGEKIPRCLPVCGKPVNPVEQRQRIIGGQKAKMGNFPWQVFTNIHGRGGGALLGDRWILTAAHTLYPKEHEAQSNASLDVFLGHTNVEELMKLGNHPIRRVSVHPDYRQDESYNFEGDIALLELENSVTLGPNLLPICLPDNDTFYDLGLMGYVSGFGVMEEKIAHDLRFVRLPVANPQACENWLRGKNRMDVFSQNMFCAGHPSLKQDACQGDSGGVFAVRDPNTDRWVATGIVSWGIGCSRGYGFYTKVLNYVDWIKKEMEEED

[14] = target: T7, Coagulation factor X (Homo sapiens, UniProt P00742); experiment: Inhibition of human factor 10a using MeOCO-d-Cha-Gly-Arg-pNA as substrate
T7 sequence (P00742 41-179 limits assumed): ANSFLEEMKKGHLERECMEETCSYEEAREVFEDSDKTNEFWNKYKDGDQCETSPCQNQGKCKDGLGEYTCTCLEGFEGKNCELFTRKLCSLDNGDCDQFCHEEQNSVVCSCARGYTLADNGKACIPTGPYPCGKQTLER
T7 sequence (P00742 235-488 limits assumed): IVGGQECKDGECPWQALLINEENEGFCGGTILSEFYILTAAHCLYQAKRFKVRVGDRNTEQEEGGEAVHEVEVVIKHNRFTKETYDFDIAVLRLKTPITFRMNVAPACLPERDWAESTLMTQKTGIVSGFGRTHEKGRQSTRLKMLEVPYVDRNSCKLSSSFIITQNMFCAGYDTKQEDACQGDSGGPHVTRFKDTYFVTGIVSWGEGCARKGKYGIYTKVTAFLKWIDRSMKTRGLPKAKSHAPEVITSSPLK

[15] = Inhibition of human urinary kallikrein using H-D-Val-Leu-Arg-pNA as substrate
[16] = target: T8, Complement C1s subcomponent (Homo sapiens, UniProt P09871); experiment: Inhibition of human Complement C1s subcomponent using Val-Ser-Arg-pNA as substrate
T8 sequence (P09871 whole entry): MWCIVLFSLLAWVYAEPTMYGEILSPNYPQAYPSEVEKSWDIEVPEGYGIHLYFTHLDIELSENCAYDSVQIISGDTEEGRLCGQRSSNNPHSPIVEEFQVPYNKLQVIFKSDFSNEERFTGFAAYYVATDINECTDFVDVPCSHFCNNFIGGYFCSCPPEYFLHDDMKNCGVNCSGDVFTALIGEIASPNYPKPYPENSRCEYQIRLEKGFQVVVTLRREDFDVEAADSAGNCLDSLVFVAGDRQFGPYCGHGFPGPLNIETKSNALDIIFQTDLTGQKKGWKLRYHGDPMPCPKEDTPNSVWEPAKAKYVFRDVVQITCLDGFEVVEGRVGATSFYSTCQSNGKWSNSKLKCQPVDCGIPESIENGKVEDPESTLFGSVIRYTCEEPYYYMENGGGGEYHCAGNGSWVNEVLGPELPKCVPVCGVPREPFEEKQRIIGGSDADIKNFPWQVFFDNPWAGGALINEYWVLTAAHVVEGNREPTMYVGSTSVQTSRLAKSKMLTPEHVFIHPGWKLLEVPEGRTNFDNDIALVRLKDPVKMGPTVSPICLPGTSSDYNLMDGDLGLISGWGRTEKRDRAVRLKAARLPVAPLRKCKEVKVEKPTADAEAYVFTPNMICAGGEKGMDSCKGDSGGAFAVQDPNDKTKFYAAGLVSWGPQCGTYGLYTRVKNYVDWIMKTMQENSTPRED

[17] = target: T1, Plasminogen; experiment: Inhibition of plasmin (unknown origin) using D-Val-Leu-Lys-p-nitroanilide as substrate
[18] = target: Coagulation factor XI (Homo sapiens, UniProt P03951); experiment: Inhibition of human factor 11a using H-D-Lys(Cbo)-Pro-Arg-pNA as substrate
Chain of Coagulation factor XI (P03951 19-387 limits assumed): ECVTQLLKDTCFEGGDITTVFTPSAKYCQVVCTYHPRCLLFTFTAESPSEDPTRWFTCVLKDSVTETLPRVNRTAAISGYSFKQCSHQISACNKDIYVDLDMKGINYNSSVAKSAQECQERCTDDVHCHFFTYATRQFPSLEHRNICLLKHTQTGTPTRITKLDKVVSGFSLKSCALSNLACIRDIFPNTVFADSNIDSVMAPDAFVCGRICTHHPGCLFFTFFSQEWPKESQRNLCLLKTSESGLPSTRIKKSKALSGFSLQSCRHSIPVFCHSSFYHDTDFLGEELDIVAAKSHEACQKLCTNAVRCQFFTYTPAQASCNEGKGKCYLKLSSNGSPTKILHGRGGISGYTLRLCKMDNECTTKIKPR
Chain of Coagulation factor XI (P03951 388-625 limits assumed): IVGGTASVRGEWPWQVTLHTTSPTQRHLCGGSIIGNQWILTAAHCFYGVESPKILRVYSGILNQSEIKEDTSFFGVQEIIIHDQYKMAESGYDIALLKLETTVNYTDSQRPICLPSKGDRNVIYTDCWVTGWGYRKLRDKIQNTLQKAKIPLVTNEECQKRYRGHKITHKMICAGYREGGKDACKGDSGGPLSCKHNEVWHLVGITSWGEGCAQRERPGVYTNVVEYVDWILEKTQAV

[19] = target: T1, Plasminogen; experiment: Competitive inhibition of human plasmin assessed as reduction in hydrolytic activity using S-2251 as substrate by spectrophotometric method
[20] = target: T7, Coagulation factor X; experiment: Inhibition of human factor 10a (unknown origin) assessed as reduction in hydrolysis activity preincubated for 10 mins followed by spectrozyme FXa
[21] = target: T5, Prothrombin; experiment: Inhibition of thrombin (unknown origin) assessed as reduction in hydrolysis activity preincubated for 10 mins followed by spectrozyme TH
[22] = target: T1, Plasminogen; experiment: Inhibition of human plasmin
[23] = Plasma concentration in human at 100 mg/kg, po measured within 2 to 3 hrs; type: ADME, organism-based; settings: in vivo
[24] = Initial serum concentration in human at 100 mg/kg, iv; type: ADME, organism-based
[25] = Drug level in human serum at 100 mg/kg, iv measured after 3 to 4 hrs; type: ADME, organism-based; settings: in vivo
[26] = Half life in human; type: ADME
[27] = target: T1, Plasminogen; experiment: Inhibition of human plasmin assessed as reduction in proteolysis activity in presence of fibrinogen after 90 mins by SDS-PAGE analysis
[28] = target: T2, Urokinase-type plasminogen activator; experiment: Inhibition of urokinase-type plasminogen activator (unknown origin)
[29] = target: T3, Tissue-type plasminogen activator; experiment: Inhibition of tissue-type plasminogen activator (unknown origin)
[30] = target: T1, Plasminogen; experiment: Inhibition of plasmin (unknown origin)
[31] = target: T1, Plasminogen; experiment: Inhibition of human plasmin assessed as km using S-2251 as the substrate
[32] = compound: CC[C@@H](C)[C@@H](N)C(=O)N[C@@H](Cc1ccccc1)C(=O)N[C@@H](CCCCN)C(=O)Nc1ccc([N+](=O)[O-])cc1; experiment: (§1) Inhibition of human plasmin assessed as km by Lineweaver-burk method
[33] = compound: NCCCC[C@H](NC(=O)[C@H](Cc1ccccc1)NC(=O)[C@@H]1CCC(=O)N1)C(=O)Nc1ccc([N+](=O)[O-])cc1; experiment: as §1

- IC50 [1]: 15 µM
- IC50 [2]: 6.1 µM
Molecule: NCCCC[C@H](NC(=O)[C@H]1CC[C@H](CN)CC1)C(=O)Nc1ccc(C(=O)c2ccccc2)cc1

- IC50 [3]: 2.75 µM
- Ki [4]: 2000 µM
Molecule: NC[C@H]1CC[C@H](C(=O)O)CC1 [TRANEXAMIC ACID]

- Ki [5]: 0.31 µM
Molecule: N=C(N)Nc1ccc(C(=O)Oc2ccc(S(N)(=O)=O)cc2)cc1

- half-life [6]: 20 min
- concentration [7]: 0.9 µM
- IC50 [3]: 0.15 µM
- half-life [8]: 20 min
Molecule: N=C(N)c1ccc(CNC(=O)[C@H](Cc2cccc(CN)c2)NC(=O)[C@@H](CCCc2ccccc2)NS(=O)(=O)Cc2cccc(C(=O)O)c2)cc1

- Ki [9]: > 1 µM
- Ki [10]: > 1 µM
- Ki [11]: > 1 µM
- Ki [12]: > 1 µM
- Ki [13]: > 1 µM
- Ki [14]: > 1 µM
- Ki [15]: > 1 µM
- Ki [16]: > 1 µM
Molecule: N=C(N)c1ccc(CNC(=O)[C@H](CCC2CCNCC2)NC(=O)[C@@H](CCC2CCN(C(=O)C3CC3)CC2)NS(=O)(=O)Cc2ccccc2)cc1

- Ki [17]: 5 to 10 µM
Molecule: O=C(CCC1CCCC(NC(=O)[C@H](Cc2c[nH]c3ccccc23)NC(=O)OCc2ccccc2)C1=O)N[C@@H](Cc1c[nH]c2ccccc12)C(=O)O (mixture of isomers)

- Ki [9]: > 0.13 µM
- Ki [10]: > 0.13 µM
- Ki [11]: > 0.13 µM
- Ki [18]: > 0.13 µM
- Ki [12]: > 0.13 µM
- Ki [13]: > 0.13 µM
- Ki [14]: > 0.13 µM
- Ki [15]: > 0.13 µM
- Ki [16]: > 0.13 µM
Molecule: N=C(N)c1ccc(CNC(=O)[C@H](CCC2CCNCC2)NC(=O)[C@@H](CCCc2ccccc2)NS(=O)(=O)Cc2ccccc2)cc1

- Ki [19]: 1.9 µM
Molecule: CCOC(=O)c1ccc(OC(=O)CCCCCNC(=N)N)cc1 [GABEXATE]

- IC50 [20]: > 250 µM
- IC50 [21]: > 500 µM
Molecule: O=c1c(OS(=O)(=O)O)c(-c2ccc(OS(=O)(=O)O)c(OS(=O)(=O)O)c2)oc2cc(OS(=O)(=O)O)cc(OCc3cn(CCCCCCCCn4c(-c5ccc(OS(=O)(=O)O)cc5)nc5ccccc5c4=O)nn3)c12

- Ki [22]: 0.14 µM
Molecule: N=C(N)c1cccc(C[C@H](NS(=O)(=O)c2ccc3ccccc3c2)C(=O)N2CCCC(C(=O)NCc3cccs3)C2)c1 (some centres not stated)

- Cp [23]: 300 µg/mL
- C0 [24]: 1500 µg/mL
- Drug uptake [25]: 0.035 mg/mL
- half-life [26]: 80 min
Molecule: NCCCCCC(=O)O [AMINOCAPROIC ACID]

- Ki [27]: 0.0033 µM
Molecule: CC(=O)N[C@@H](CCCCN)C(=O)N[C@@H](CCS(C)(=O)=O)C(=O)N[C@@H](Cc1ccc(O)cc1)C(=O)N[C@H](C=O)CCCNC(=N)N (Ac-K[Met(O2)]YR-aldehyde)

- Ki [28]: 6.3 µM
- Ki [29]: 0.9 µM
- Ki [30]: 0.7 µM
Molecule: N=C(N)c1ccc(CNC(=O)[C@@H]2CCN2C(=O)[C@H](NCC(=O)O)C2CCCCC2)cc1

- Km [31]: 30 µM
Molecule: CC[C@@H](C)[C@@H](N)C(=O)N[C@@H](Cc1ccccc1)C(=O)N[C@@H](CCCCN)C(=O)Nc1ccc([N+](=O)[O-])cc1

B1: Plasminogen (Homo sapiens), P00747 (protein)
chain: MEHKEVVLLLLLFLKSGQGEPLDDYVNTQGASLFSVTKKQLGAGSIEECAAKCEEDEEFTCRAFQYHSKEQQCVIMAENRKSSIIIRMRDVVLFEKKVYLSECKTGNGKNYRGTMSKTKNGITCQKWSSTSPHRPRFSPATHPSEGLEENYCRNPDNDPQGPWCYTTDPEKRYDYCDILECEEECMHCSGENYDGKISKTMSGLECQAWDSQSPHAHGYIPSKFPNKNLKKNYCRNPDRELRPWCFTTDPNKRWELCDIPRCTTPPPSSGPTYQCLKGTGENYRGNVAVTVSGHTCQHWSAQTPHTHNRTPENFPCKNLDENYCRNPDGKRAPWCHTTNSQVRWEYCKIPSCDSSPVSTEQLAPTAPPELTPVVQDCYHGDGQSYRGTSSTTTTGKKCQSWSSMTPHRHQKTPENYPNAGLTMNYCRNPDADKGPWCFTTDPSVRWEYCNLKKCSGTEASVVAPPPVVLLPDVETPSEEDCMFGNGKGYRGKRATTVTGTPCQDWAAQEPHRHSIFTPETNPRAGLEKNYCRNPDGDVGGPWCYTTNPRKLYDYCDVPQCAAPSFDCGKPQVEPKKCPGRVVGGCVAHPHSWPWQVSLRTRFGMHFCGGTLISPEWVLTAAHCLEKSPRPSSYKVILGAHQEVNLEPHVQEIEVSRLFLEPTRKDIALLKLSSPAVITDKVIPACLPSPNYVVADRTECFITGWGETQGTFGAGLLKEAQLPVIENKVCNRYEFLNGRVQSTELCAGHLAGGTDSCQGDSGGPLVCFEKDKYILQGVTSWGLGCARPNKPGVYVRVSRFVTWIEGVMRNN
- Km [32]: 20 µM
- Km [33]: 300 µM
